{"source": "paper PMC9115581", "about": "“Synthesis and Biological Evaluations of Betulinic Acid Derivatives With Inhibitory Activity on Hyaluronidase and Anti-Inflammatory Effects Against Hyaluronic Acid Fragment Induced Inflammation” (Frontiers in Chemistry, 2022)", "key": {"[1]": {"test_system": "LPS-stimulated THP-1 cells", "assay": "IL-6 by ELISA in LPS-stimulated THP-1 cells", "format": "cell-based, human", "settings": "10 μM, LPS alone 695.6 pg/mL", "method": "To evaluate the effect of BA derivatives on LPS-induced IL-6 secretion, THP-1 monocytes were seeded at a density of 50,000 cells per well in a 48-well plate and differentiated with PMA (25 ng/mL), pre-treated with the BA derivatives at concentrations of 10 μM was performed for 6 h followed by stimulation with or without 1 μg/mL LPS for 12 h. The cell culture supernatant was collected for the measurement of IL-6. The levels of IL-6 were determined using specific ELISA kits (BioLegend, San Diego, CA, United States) ([Liu et al., 2020])."}, "LPS-stimulated BV2 cells": {"test_system": "LPS-stimulated BV2 cells", "assay": "NO production (Griess assay) in LPS-stimulated BV2 cells", "format": "cell-based, murine", "settings": "Mus musculus, BV-2, LPS 1 μg/mL", "method": "(§1) NO concentration was determined by the Griess assay according to a previous report ([Ma et al., 2016]), RAW264.7 and BV-2 cells (20,000 cells per well) were plated into 96-well plates. After an incubation period of 24 h, the cells were pre-treated with BA derivatives for 2 h and were co-treated with LPS (1 μg/mL) for 24 h. For the LMWHAFs-induced inflammation assay, THP-1 cells were pre-treated with BA derivatives for 2 h and then treated with LPS (1 μg/mL) and HA fragment (a hyaluronan oligosaccharide 6mer; 50 μg/mL) from Amsbio (Rockville, MD, United States; product code: CSR-11002) for 24 h ([Campo et al., 2012]; [Scuruchi et al., 2016]). Subsequently, the culture medium was mixed with the Griess reagent in a 1:1 ratio followed by a 15 min incubation in the dark. An absorbance value was measured at 540 nm using a Spectramax M2 microplate reader, and the NO concentration was calculated based on the standard NO curve."}, "[2]": {"test_system": "LPS-stimulated RAW264.7 cells", "assay": "NO production (Griess assay) in LPS-stimulated RAW264.7 cells", "format": "cell-based, murine", "settings": "for Reduction of LPS-stimulated NO production: 10 μM, LPS 1 μg/mL; for Decrease of NO production as compared to parent compound BA: LPS-stimulated", "method": "as §1"}, "[3]": {"test_system": "HA fragment-stimulated THP-1 cells", "assay": "NO production in HA fragment (LMWHAFs) stimulated THP-1 cells", "format": "cell-based, human", "settings": "10 μM, HA fragment 6mer 50 μg/mL", "method": "as §1"}, "[4]": {"assay": "Cell viability of BV-2 cells", "format": "cell-based, murine", "settings": "mouse, BV2 cells", "method": "The cytotoxicity of each compound was determined in BV-2 and RAW264.7 cells with the MTT assay ([Li et al., 2020]). Briefly, cells were seeded in 96-well plates at 20,000 cells per well. Cells were allowed to adhere for 24 h. BA derivatives were prepared to 100 mM in DMSO, then diluted in serum-free media to yield concentrations of 10 µM. After the treatment of the cells with BA derivatives for 2 h, the cells were incubated in the absence or presence of LPS (1 μg/mL) for 24 h. Cellular viability was determined as a percentage of control (DMSO) by using a Cell Proliferation Kit II (Promega, Madison, WI, United States). XTT reagent (0.3 mg/mL) was then added to each well and incubated for 4 h at 37°C and an absorbance value was measured at 492 nm using a Spectramax M2 microplate reader ([Hayon et al., 2003])."}}}
{"smiles": "C=C(C)[C@@H]1CC[C@]2(C(=O)O)CC[C@]3(C)[C@H](CC[C@@H]4[C@@]5(C)C/C(=C\\c6ccccc6Br)C(=O)C(C)(C)[C@@H]5CC[C@]43C)[C@@H]12", "note": "[BA-02, (1R,3aS,5aR,5bR,7aR,11aR,11bR,13aR,13bR)-10-((E)-2-bromobenzylidene)-5a,5b,8,8,11a-pentamethyl-9-oxo-1-(prop-1-en-2-yl)icosahydro-3aH-cyclopenta[a]chrysene-3a-carboxylic acid]", "values": [{"measurement": "LPS-induced secretion of IL-6", "setting": "[1]", "value": 586.6, "unit": "pg/mL"}]}
{"smiles": "C=C(C)[C@@H]1CC[C@]2(C(=O)O)CC[C@]3(C)[C@H](CC[C@@H]4[C@@]5(C)C/C(=C\\c6cccc(OC)c6)C(=O)C(C)(C)[C@@H]5CC[C@]43C)[C@@H]12", "note": "[BA-09]", "values": [{"measurement": "inhibition at 10 µM", "setting": "LPS-stimulated BV2 cells", "value": 36, "unit": "%"}]}
{"smiles": "C=C(C)[C@@H]1CC[C@]2(C(=O)O)CC[C@]3(C)[C@H](CC[C@@H]4[C@@]5(C)C/C(=C\\c6cc(F)ccc6[N+](=O)[O-])C(=O)C(C)(C)[C@@H]5CC[C@]43C)[C@@H]12", "note": "[BA-04, (1R,3aS,5aR,5bR,7aR,11aR,11bR,13aR,13bR)-10-((E)-5-fluoro-2-nitrobenzylidene)-5a,5b,8,8,11a-pentamethyl-9-oxo-1-(prop-1-en-2-yl)icosahydro-3aH-cyclopenta[a]chrysene-3a-carboxylic acid]", "values": [{"measurement": "LPS-induced secretion of IL-6", "setting": "[1]", "value": 539.6, "unit": "pg/mL"}, {"measurement": "Reduction of LPS-stimulated NO production", "setting": "[2]", "value": 32.3, "unit": "%"}]}
{"smiles": "C=C(C)[C@@H]1CC[C@]2(C(=O)O)CC[C@]3(C)[C@H](CC[C@@H]4[C@@]5(C)CC[C@H](O)C(C)(C)[C@@H]5CC[C@]43C)[C@@H]12", "note": "[BA, betulinic acid]", "values": [{"measurement": "Reduction of LMWHAF-stimulated NO production", "setting": "[3]", "value": 12.4, "unit": "%"}, {"measurement": "LPS-induced secretion of IL-6", "setting": "[1]", "value": 613.3, "unit": "pg/mL"}, {"measurement": "Reduction of LPS-stimulated NO production", "setting": "[2]", "value": 20.4, "unit": "%"}, {"measurement": "inhibition at 10 µM", "setting": "LPS-stimulated BV2 cells", "value": 3.4, "unit": "%"}, {"measurement": "viability at 10 µM", "setting": "[4]", "value": 110, "unit": "%"}]}
{"smiles": "C=C(C)[C@@H]1CC[C@]2(C(=O)O)CC[C@]3(C)[C@H](CC[C@@H]4[C@@]5(C)C/C(=C\\c6cccc(C(F)(F)F)c6)C(=O)C(C)(C)[C@@H]5CC[C@]43C)[C@@H]12", "note": "[BA-11, (1R,3aS,5aR,5bR,7aR,11aR,11bR,13aR,13bR)-5a,5b,8,8,11a-pentamethyl-9-oxo-1-(prop-1-en-2-yl)-10-((E)-3-(trifluoromethyl)benzylidene)icosahydro-3aH-cyclopenta[a]chrysene-3a-carboxylic acid]", "values": [{"measurement": "Reduction of LMWHAF-stimulated NO production", "setting": "[3]", "value": 11.3, "unit": "%"}, {"measurement": "Reduction of LPS-stimulated NO production", "setting": "[2]", "value": 33.4, "unit": "%"}, {"measurement": "inhibition at 10 µM", "setting": "LPS-stimulated BV2 cells", "value": 7.7, "unit": "%"}]}
{"smiles": "C=C(C)[C@@H]1CC[C@]2(C(=O)O)CC[C@]3(C)[C@H](CC[C@@H]4[C@@]5(C)C/C(=C\\c6ccc(OC)cc6)C(=O)C(C)(C)[C@@H]5CC[C@]43C)[C@@H]12", "note": "[BA-13, (1R,3aS,5aR,5bR,7aR,11aR,11bR,13aR,13bR)-10-((E)-4-methoxybenzylidene)-5a,5b,8,8,11a-pentamethyl-9-oxo-1-(prop-1-en-2-yl)icosahydro-3aH-cyclopenta[a]chrysene-3a-carboxylic acid]", "values": [{"measurement": "Reduction of LMWHAF-stimulated NO production", "setting": "[3]", "value": 35.6, "unit": "%"}, {"measurement": "Reduction of LPS-stimulated NO production", "setting": "[2]", "value": 46.4, "unit": "%"}, {"measurement": "Decrease of NO production as compared to parent compound BA", "setting": "[2]", "value": 2.1, "unit": "fold"}, {"measurement": "inhibition at 10 µM", "setting": "LPS-stimulated BV2 cells", "value": 33.6, "unit": "%"}]}
{"smiles": "C=C(C)[C@@H]1CC[C@]2(C(=O)O)CC[C@]3(C)[C@H](CC[C@@H]4[C@@]5(C)C/C(=C\\c6ccccc6OC)C(=O)C(C)(C)[C@@H]5CC[C@]43C)[C@@H]12", "note": "[BA-05, (1R,3aS,5aR,5bR,7aR,11aR,11bR,13aR,13bR)-10-((E)-2-methoxybenzylidene)-5a,5b,8,8,11a-pentamethyl-9-oxo-1-(prop-1-en-2-yl)icosahydro-3aH-cyclopenta[a]chrysene-3a-carboxylic acid]", "values": [{"measurement": "LPS-induced secretion of IL-6", "setting": "[1]", "value": 589.8, "unit": "pg/mL"}, {"measurement": "Reduction of LPS-stimulated NO production", "setting": "[2]", "value": 38.5, "unit": "%"}]}
{"smiles": "C=C(C)[C@@H]1CC[C@]2(C(=O)O)CC[C@]3(C)[C@H](CC[C@@H]4[C@@]5(C)C/C(=C\\c6cc(OC)ccc6[N+](=O)[O-])C(=O)C(C)(C)[C@@H]5CC[C@]43C)[C@@H]12", "note": "[BA-03, (1R,3aS,5aR,5bR,7aR,11aR,11bR,13aR,13bR)-10-((E)-5-methoxy-2-nitrobenzylidene)-5a,5b,8,8,11a-pentamethyl-9-oxo-1-(prop-1-en-2-yl)icosahydro-3aH-cyclopenta[a]chrysene-3a-carboxylic acid]", "values": [{"measurement": "LPS-induced secretion of IL-6", "setting": "[1]", "value": 586.0, "unit": "pg/mL"}, {"measurement": "Reduction of LPS-stimulated NO production", "setting": "[2]", "value": 42.9, "unit": "%"}, {"measurement": "Decrease of NO production as compared to parent compound BA", "setting": "[2]", "value": 2.3, "unit": "fold"}]}
